The source of these data is ChEMBL document CHEMBL1158201, “Barbamide, a chlorinated metabolite with molluscicidal activity from the Caribbean cyanobacterium Lyngbya majuscula” (J Nat Prod, 1996).

The term LC50 denotes the concentration lethal to half of the exposed cells or organisms.

Common to all, as to format: organism-based
Holding throughout (details): in vivo

Data set [1] is described as follows: Ichthyotoxicity in Carassius auratus.
The subject of data set [2] is Biomphalaria glabrata. Briefly: Molluscicidal activity against Biomphalaria glabrata after 24 hrs.
Data set [3] is described as follows: Toxicity in Artemia salina.

Converted amounts (≈) assume the structure as drawn.

In turn, `C=C1CC(=O)N[C@@H](C)C(=O)N(C)[C@@H](C(C)C)C(=O)NCC(=O)O[C@@H](/C(C)=C/C(C)=C/C(C)(C)C)[C@@H]1C` [ANTILLATOXIN] had an LC50 in data set [1] of 0.05 µg/mL (≈ 0.0993 µM). Turning to `CO/C(=C/C(=O)N(C)C(Cc1ccccc1)c1nccs1)CC(C)C(Cl)(Cl)Cl` (centres undefined) [BARBAMIDE], the LC100 in data set [2] was found to be 100 µg/mL. Take `C=CC[C@@H](CC/C(C)=C/C=C/CC/C=C\[C@@H]1CSC([C@@H]2C[C@@H]2C)=N1)OC` [CURACIN A]: the LC50 in data set [3] turned out to be 0.0025 µg/mL (≈ 0.00669 µM). Regarding `C=C(CCNC(=O)CC/C=C/C[C@H](CCCCCCC)OC)[C@@]12O[C@@H]1CC=C(C)C2=O` [MALYNGAMIDE H], in data set [1], the median lethal concentration (LC50) was found to be 5 µg/mL (≈ 11.6 µM).
